Assay results published in publication PMC3694096, “Development of Novel In Vivo Chemical Probes to Address CNS Protein Kinase Involvement in Synaptic Dysfunction” (PLoS ONE, 2013).
Where two headings read alike, the source gives them in different places.

How the values were obtained:
[1] = biological target: T1, Ret (V804L) (Homo sapiens, UniProt P07949, V804L); assay: Kinome profiler screen; assay type: biochemical; settings: at 20,000 nM inhibitor; kinase activity remaining
T1 construct: purchased Millipore KinaseProfiler

[2] = biological target: T2, CSK (Homo sapiens, UniProt P41240); assay: Kinome profiler screen; assay type: biochemical; settings: at 20,000 nM inhibitor; kinase activity remaining
T2 construct: purchased Millipore KinaseProfiler

[3] = biological target: T3, Flt1 (Homo sapiens, UniProt P17948); assay: Kinome profiler screen; assay type: biochemical; settings: for activity at 20 µM: at 20,000 nM inhibitor, kinase activity remaining
T3 construct: purchased Millipore
T3 sequence (P17948 27-1338): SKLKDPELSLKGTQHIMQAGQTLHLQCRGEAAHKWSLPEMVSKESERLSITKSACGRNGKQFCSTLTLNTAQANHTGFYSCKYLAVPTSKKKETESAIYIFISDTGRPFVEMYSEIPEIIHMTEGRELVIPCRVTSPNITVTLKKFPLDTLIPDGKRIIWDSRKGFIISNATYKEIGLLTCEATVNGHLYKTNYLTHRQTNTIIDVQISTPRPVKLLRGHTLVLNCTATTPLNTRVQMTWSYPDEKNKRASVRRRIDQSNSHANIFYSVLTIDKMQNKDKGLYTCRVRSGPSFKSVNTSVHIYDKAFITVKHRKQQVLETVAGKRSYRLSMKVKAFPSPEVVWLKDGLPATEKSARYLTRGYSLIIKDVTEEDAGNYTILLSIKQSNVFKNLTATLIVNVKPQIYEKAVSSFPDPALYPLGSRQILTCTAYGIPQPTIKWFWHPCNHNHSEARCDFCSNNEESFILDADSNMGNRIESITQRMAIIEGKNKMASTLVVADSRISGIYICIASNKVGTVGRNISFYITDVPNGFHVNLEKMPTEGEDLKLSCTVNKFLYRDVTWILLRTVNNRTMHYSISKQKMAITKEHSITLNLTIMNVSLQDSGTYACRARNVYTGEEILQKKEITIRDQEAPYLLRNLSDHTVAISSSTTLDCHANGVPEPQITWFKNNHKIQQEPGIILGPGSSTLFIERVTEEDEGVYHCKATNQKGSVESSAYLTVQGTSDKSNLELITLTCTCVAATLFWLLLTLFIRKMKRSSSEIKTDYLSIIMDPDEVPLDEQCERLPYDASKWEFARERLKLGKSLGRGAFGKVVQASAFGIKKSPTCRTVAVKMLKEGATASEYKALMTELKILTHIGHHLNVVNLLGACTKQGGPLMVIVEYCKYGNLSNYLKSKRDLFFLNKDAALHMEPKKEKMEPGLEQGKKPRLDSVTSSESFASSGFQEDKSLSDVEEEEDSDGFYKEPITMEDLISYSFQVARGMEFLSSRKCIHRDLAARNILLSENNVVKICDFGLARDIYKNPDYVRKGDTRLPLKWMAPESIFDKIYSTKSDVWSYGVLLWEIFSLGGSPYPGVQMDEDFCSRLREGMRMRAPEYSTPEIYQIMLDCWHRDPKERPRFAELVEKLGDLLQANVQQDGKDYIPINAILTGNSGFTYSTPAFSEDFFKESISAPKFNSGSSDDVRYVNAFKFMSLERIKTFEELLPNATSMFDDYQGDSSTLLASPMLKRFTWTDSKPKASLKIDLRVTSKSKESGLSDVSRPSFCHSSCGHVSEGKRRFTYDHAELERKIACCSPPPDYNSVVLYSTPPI

[4] = biological target: T4, EphA7 (Homo sapiens, UniProt Q15375); assay: Kinome profiler screen; assay type: biochemical; settings: for activity at 20 µM: at 20,000 nM inhibitor, kinase activity remaining
T4 construct: purchased Millipore
T4 sequence (Q15375 28-998): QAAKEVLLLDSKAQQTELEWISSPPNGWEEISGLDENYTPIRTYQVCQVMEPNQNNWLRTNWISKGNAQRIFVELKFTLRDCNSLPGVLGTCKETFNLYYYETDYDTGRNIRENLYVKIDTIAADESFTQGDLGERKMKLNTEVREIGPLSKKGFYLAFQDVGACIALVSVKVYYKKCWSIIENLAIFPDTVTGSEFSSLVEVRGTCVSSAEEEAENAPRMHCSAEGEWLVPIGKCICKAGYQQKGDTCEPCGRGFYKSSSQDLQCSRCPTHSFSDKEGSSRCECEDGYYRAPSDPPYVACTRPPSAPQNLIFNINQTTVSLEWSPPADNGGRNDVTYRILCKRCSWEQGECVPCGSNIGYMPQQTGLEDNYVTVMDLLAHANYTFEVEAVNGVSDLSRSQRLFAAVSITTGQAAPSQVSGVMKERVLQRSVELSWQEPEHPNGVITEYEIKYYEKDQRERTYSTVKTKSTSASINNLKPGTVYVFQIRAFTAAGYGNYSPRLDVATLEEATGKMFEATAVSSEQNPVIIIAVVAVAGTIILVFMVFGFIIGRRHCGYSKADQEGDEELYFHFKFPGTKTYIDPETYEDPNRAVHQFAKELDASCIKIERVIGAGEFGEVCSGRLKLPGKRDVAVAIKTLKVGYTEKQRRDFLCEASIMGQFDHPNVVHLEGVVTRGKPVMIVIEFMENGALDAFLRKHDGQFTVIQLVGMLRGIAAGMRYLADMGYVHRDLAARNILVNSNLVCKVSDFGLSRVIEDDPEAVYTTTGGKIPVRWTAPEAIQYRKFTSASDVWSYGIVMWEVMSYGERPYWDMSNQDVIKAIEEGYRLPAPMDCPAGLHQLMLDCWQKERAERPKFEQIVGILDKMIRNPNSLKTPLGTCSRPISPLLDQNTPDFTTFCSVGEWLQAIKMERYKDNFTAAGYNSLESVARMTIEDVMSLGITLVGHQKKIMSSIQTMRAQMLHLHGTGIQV

[5] = biological target: T5, EGFR(L858R) (Homo sapiens, UniProt P00533, L858R); assay: Kinome profiler screen; assay type: biochemical; settings: at 20,000 nM inhibitor; kinase activity remaining
T5 construct: purchased Millipore KinaseProfiler

[6] = biological target: T6, PKCζ (Homo sapiens, UniProt Q05513); assay: Kinome profiler screen; assay type: biochemical; settings: at 20,000 nM inhibitor; kinase activity remaining
T6 construct: purchased Millipore KinaseProfiler

[7] = biological target: T7, EphA3 (Homo sapiens, UniProt P29320); assay: Kinome profiler screen; assay type: biochemical; settings: at 20,000 nM inhibitor; kinase activity remaining
T7 construct: purchased Millipore KinaseProfiler

[8] = biological target: T8, Bmx (Homo sapiens, UniProt P51813); assay: Kinome profiler screen; assay type: biochemical; settings: at 20,000 nM inhibitor; kinase activity remaining
T8 construct: purchased Millipore KinaseProfiler

[9] = biological target: T9, BTK (Homo sapiens, UniProt Q06187); assay: Kinome profiler screen; assay type: biochemical; settings: at 20,000 nM inhibitor; kinase activity remaining
T9 construct: purchased Millipore KinaseProfiler

[10] = biological target: T10, PDK1 (Homo sapiens, UniProt O15530); assay: Kinome profiler screen; assay type: biochemical; settings: at 20,000 nM inhibitor; kinase activity remaining
T10 construct: purchased Millipore KinaseProfiler

[11] = biological target: T11, TGFBR1 (Homo sapiens, UniProt P36897); assay: Kinome profiler screen; assay type: biochemical; settings: at 20,000 nM inhibitor; kinase activity remaining
T11 construct: purchased Millipore KinaseProfiler
T11 sequence (P36897 34-503): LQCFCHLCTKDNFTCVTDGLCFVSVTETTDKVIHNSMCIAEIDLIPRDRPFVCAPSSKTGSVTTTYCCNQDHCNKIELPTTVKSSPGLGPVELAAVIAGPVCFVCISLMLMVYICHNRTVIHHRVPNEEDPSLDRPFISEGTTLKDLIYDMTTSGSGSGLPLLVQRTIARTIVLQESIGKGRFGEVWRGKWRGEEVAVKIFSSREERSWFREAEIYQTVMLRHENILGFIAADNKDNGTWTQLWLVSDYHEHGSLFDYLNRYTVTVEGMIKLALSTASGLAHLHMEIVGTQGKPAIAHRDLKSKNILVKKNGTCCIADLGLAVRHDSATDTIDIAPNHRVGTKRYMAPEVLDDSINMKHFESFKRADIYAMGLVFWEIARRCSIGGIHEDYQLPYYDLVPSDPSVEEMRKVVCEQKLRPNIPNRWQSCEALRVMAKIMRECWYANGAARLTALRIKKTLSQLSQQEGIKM

[12] = biological target: T12, CDK3/cyclinE (Homo sapiens, UniProt Q00526); assay: Kinome profiler screen; assay type: biochemical; settings: at 20,000 nM inhibitor; kinase activity remaining
T12 construct: purchased Millipore KinaseProfiler

[13] = biological target: T13, MAPK2 (Homo sapiens, UniProt P28482); assay: Kinome profiler screen; assay type: biochemical; settings: at 20,000 nM inhibitor; kinase activity remaining
T13 construct: purchased Millipore KinaseProfiler
T13 sequence (P28482 whole entry): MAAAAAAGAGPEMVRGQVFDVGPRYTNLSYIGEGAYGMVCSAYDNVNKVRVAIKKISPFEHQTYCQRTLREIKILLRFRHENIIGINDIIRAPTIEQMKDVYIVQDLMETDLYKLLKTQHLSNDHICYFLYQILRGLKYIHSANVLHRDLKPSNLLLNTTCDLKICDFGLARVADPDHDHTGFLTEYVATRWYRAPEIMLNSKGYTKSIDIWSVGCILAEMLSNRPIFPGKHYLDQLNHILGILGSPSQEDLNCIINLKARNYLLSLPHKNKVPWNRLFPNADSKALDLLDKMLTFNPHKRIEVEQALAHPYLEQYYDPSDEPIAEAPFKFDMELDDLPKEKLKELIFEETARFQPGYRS

[14] = biological target: T14, IRR (Homo sapiens, UniProt P14616); assay: Kinome profiler screen; assay type: biochemical; settings: at 20,000 nM inhibitor; kinase activity remaining
T14 construct: purchased Millipore KinaseProfiler

[15] = biological target: T15, MSK1 (Homo sapiens, UniProt O75582); assay: Kinome profiler screen; assay type: biochemical; settings: at 20,000 nM inhibitor; kinase activity remaining
T15 construct: purchased Millipore KinaseProfiler

[16] = biological target: T16, CLK2 (Homo sapiens, UniProt P49760); assay: Kinome profiler screen; assay type: biochemical; settings: at 20,000 nM inhibitor; kinase activity remaining
T16 construct: purchased Millipore KinaseProfiler

[17] = biological target: T17, LOK (Homo sapiens, UniProt O94804); assay: Kinome profiler screen; assay type: biochemical; settings: for activity at 20 µM: at 20,000 nM inhibitor, kinase activity remaining
T17 construct: purchased Millipore
T17 sequence (O94804 whole entry): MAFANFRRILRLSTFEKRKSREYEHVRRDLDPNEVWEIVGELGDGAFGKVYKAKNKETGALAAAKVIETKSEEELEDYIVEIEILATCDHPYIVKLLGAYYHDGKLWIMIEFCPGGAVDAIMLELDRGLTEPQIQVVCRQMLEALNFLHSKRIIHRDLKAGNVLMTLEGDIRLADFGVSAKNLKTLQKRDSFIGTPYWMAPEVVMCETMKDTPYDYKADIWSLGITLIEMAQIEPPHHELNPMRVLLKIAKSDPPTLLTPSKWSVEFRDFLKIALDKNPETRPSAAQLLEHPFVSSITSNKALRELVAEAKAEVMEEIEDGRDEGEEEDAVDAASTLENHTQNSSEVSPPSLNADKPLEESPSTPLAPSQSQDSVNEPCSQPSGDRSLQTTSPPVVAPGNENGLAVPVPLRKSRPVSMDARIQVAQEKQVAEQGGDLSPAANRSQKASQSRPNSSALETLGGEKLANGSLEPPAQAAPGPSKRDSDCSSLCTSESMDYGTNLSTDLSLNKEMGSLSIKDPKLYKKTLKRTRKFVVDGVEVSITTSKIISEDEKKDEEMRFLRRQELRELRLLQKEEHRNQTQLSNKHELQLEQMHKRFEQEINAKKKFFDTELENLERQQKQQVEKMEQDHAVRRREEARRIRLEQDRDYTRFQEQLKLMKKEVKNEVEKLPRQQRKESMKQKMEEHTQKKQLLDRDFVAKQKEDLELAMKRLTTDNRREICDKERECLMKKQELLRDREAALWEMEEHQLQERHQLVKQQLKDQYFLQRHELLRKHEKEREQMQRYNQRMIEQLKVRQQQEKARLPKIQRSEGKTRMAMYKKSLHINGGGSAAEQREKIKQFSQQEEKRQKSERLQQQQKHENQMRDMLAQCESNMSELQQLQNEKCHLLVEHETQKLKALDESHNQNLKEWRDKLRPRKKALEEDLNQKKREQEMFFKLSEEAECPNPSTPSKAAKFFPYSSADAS

[18] = biological target: T18, CaMKIδ (Homo sapiens, UniProt Q8IU85); assay: Kinome profiler screen; assay type: biochemical; settings: at 20,000 nM inhibitor; kinase activity remaining
T18 construct: purchased Millipore KinaseProfiler
T18 sequence (Q8IU85 whole entry): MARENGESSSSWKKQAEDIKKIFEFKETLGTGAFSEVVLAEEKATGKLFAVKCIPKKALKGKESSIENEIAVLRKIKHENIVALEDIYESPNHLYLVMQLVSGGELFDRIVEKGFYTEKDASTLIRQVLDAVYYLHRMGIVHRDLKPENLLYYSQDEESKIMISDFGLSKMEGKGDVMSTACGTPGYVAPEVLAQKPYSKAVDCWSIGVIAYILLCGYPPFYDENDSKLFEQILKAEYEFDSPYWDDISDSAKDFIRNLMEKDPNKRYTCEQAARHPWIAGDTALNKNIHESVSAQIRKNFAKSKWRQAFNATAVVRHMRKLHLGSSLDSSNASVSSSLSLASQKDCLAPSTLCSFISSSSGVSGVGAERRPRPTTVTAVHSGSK

[19] = biological target: T19, SRPK2 (Homo sapiens, UniProt P78362); assay: Kinome profiler screen; assay type: biochemical; settings: at 20,000 nM inhibitor; kinase activity remaining
T19 construct: purchased Millipore KinaseProfiler

[20] = biological target: T20, IGF-1R, activated (Homo sapiens, UniProt P08069); assay: Kinome profiler screen; assay type: biochemical; settings: at 20,000 nM inhibitor; kinase activity remaining
T20 construct: purchased Millipore KinaseProfiler

[21] = biological target: T21, PIP5K1γ (Homo sapiens, UniProt O60331); assay: Kinome profiler screen; assay type: biochemical; settings: at 20,000 nM inhibitor; kinase activity remaining
T21 construct: purchased Millipore KinaseProfiler

[22] = biological target: T22, IGF-1R (Homo sapiens, UniProt P08069); assay: Kinome profiler screen; assay type: biochemical; settings: at 20,000 nM inhibitor; kinase activity remaining
T22 construct: purchased Millipore KinaseProfiler

[23] = biological target: T23, Src(T341M) (Homo sapiens, UniProt P12931, T341M); assay: Kinome profiler screen; assay type: biochemical; settings: at 20,000 nM inhibitor; kinase activity remaining
T23 construct: purchased Millipore KinaseProfiler

[24] = Chemical stability; assay type: physicochemical
Procedure: Aqueous solubility (logS) and chemical stability were determined as previously described. Briefly, solutions for aqueous solubility (log S) determination were made by gravimetric methods using a Sartorius AG (Germany) BP 211 D analytical balance. Dry borosilicate capillary tubes (Büchi, Switzerland) were weighed and various amounts of compound (ranging from 1.2–1.5 mg) or the hydrochloride hydrate form (ranging from 10–20 mg) were added to the tared tubes, then water added to create solutions ranging in concentrations from […]. Tubes containing the samples were mixed to ensure wetting and incubated at 37°C for 24 h. Aliquots were collected from each tube, centrifuged at 12,000 g-min, and analyzed by HPLC. Concentrations were calculated using area under the peak (260 nm) at the appropriate retention time relative to a standard curve obtained from serial dilutions of each purified compound. […]. The co-solvent was methanol, experimental pH range was 1.7–10.0, temperature was 22±2°C, ionic strength was 0.15 M KCl. Five titrations were used to calculate the pKa using the Yasuda-Shedlovsky technique. […].

[25] = biological target: T24, EphA4 (Homo sapiens, UniProt P54764); assay: Kinome profiler screen; assay type: biochemical; settings: at 20,000 nM inhibitor; kinase activity remaining
T24 construct: purchased Millipore KinaseProfiler

[26] = biological target: T25, JAK3 (Homo sapiens, UniProt P52333); assay: Kinome profiler screen; assay type: biochemical; settings: at 20,000 nM inhibitor; kinase activity remaining
T25 construct: purchased Millipore KinaseProfiler

[27] = biological target: T26, Met(Y1248D) (Homo sapiens, UniProt P08581, Y1230D); assay: Kinome profiler screen; assay type: biochemical; settings: at 20,000 nM inhibitor; kinase activity remaining
T26 construct: purchased Millipore KinaseProfiler

[28] = biological target: T27, Abl(m) (Mus musculus, UniProt P00520); assay: Kinome profiler screen; assay type: biochemical; settings: at 20,000 nM inhibitor; kinase activity remaining
T27 construct: purchased Millipore KinaseProfiler

[29] = biological target: T28, Haspin (Homo sapiens, UniProt Q8TF76); assay: Kinome profiler screen; assay type: biochemical; settings: at 20,000 nM inhibitor; kinase activity remaining
T28 construct: purchased Millipore KinaseProfiler

[30] = biological target: T29, LIMK1 (Homo sapiens, UniProt P53667); assay: Kinome profiler screen; assay type: biochemical; settings: at 20,000 nM inhibitor; kinase activity remaining
T29 construct: purchased Millipore KinaseProfiler

[31] = biological target: T30, Tie2 (Homo sapiens, UniProt Q02763); assay: Kinome profiler screen; assay type: biochemical; settings: at 20,000 nM inhibitor; kinase activity remaining
T30 construct: purchased Millipore KinaseProfiler

[32] = biological target: T31, CK1γ3 (Homo sapiens, UniProt Q9Y6M4); assay: Kinome profiler screen; assay type: biochemical; settings: at 20,000 nM inhibitor; kinase activity remaining
T31 construct: purchased Millipore KinaseProfiler

[33] = biological target: T32, CaMKIIδ (Homo sapiens, UniProt Q13557); assay: Kinome profiler screen; assay type: biochemical; settings: at 20,000 nM inhibitor; kinase activity remaining
T32 construct: purchased Millipore KinaseProfiler

[34] = biological target: T33, MEK1 (Homo sapiens, UniProt Q02750); assay: Kinome profiler screen; assay type: biochemical; settings: at 20,000 nM inhibitor; kinase activity remaining
T33 construct: purchased Millipore KinaseProfiler
T33 sequence (Q02750 whole entry): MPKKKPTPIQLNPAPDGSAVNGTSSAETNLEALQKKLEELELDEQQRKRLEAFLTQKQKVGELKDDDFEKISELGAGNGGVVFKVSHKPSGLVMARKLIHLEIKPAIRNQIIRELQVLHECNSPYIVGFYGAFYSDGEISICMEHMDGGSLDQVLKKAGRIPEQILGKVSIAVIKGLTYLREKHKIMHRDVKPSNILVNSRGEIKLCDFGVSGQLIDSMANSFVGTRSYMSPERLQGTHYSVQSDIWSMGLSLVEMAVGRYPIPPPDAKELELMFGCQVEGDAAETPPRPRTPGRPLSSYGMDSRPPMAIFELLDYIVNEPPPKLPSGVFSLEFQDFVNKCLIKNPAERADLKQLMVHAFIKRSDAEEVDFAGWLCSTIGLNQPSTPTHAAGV

[35] = biological target: T34, PI3 Kinase (p110α (E542K)/p85α) (Homo sapiens, UniProt P42336, E542K); assay: Kinome profiler screen; assay type: biochemical; settings: at 20,000 nM inhibitor; kinase activity remaining
T34 construct: purchased Millipore KinaseProfiler

[36] = biological target: T35, DAPK1 (Homo sapiens, UniProt P53355); assay: Kinome profiler screen; assay type: biochemical; settings: at 20,000 nM inhibitor; kinase activity remaining
T35 construct: purchased Millipore KinaseProfiler

[37] = biological target: T36, PIP5K1α (Homo sapiens, UniProt Q99755); assay: Kinome profiler screen; assay type: biochemical; settings: at 20,000 nM inhibitor; kinase activity remaining
T36 construct: purchased Millipore KinaseProfiler

[38] = biological target: T37, CK2α2 (Homo sapiens, UniProt P19784); assay: Kinome profiler screen; assay type: biochemical
T37 construct: purchased Millipore KinaseProfiler

SMILES: CN(C)c1cc(-c2ccncc2)c(-c2cccc3ccccc23)nn1 [MW181, N,N-dimethyl-6-(naphthalen-1-yl)-5-(pyridin-4-yl)pyridazin-3-amine]
- activity at 20 µM [1]: 102%
- activity at 20 µM [2]: 111%
- activity at 20 µM [3]: 96%
- activity at 20 µM [4]: 77%
- activity at 20 µM [5]: 78%
- activity at 20 µM [6]: 98%
- activity at 20 µM [7]: 102%
- activity at 20 µM [8]: 108%
- activity at 20 µM [9]: 98%
- activity at 20 µM [10]: 105%
- activity at 20 µM [11]: 113%
- activity at 20 µM [12]: 98%
- activity at 20 µM [13]: 97%
- activity at 20 µM [14]: 108%
- activity at 20 µM [15]: 106%
- activity at 20 µM [16]: 98%
- activity at 20 µM [17]: 84%
- activity at 20 µM [18]: 103%
- activity at 20 µM [19]: 109%
- activity at 20 µM [20]: 87%
- activity at 20 µM [21]: 100%
- activity at 20 µM [22]: 121%
- activity at 20 µM [23]: 102%
- Chemical Stability (37ºC; 24 hrs) ([24]; neutral, base (pH 13), acid (pH 2)): stable in neutral, base (pH 13), acid (pH 2)
- activity at 20 µM [25]: 110%
- activity at 20 µM [26]: 103%
- activity at 20 µM [27]: 94%
- activity at 20 µM [28]: 88%
- activity at 20 µM [29]: 93%
- activity at 20 µM [30]: 95%
- activity at 20 µM [31]: 99%
- activity at 20 µM [32]: 105%
- activity at 20 µM [33]: 106%
- activity at 20 µM [34]: 105%
- activity at 20 µM [35]: 100%
- activity at 20 µM [36]: 99%
- activity at 20 µM [37]: 102%
- activity at 20 µM ([38]; at 20,000 nM inhibitor, kinase activity remaining, read-out: % Activity): 99%

SMILES: CN(C)c1cc(-c2ccncc2)c(-c2ccc3ccccc3c2)nn1 [MW108, N, N-dimethyl-6-(naphthalen-2-yl)-5-(pyridin-4-yl)pyridazin-3-amine]
- activity at 20 µM [1]: 102%
- activity at 20 µM [2]: 93%
- IC50 [3]: > 30 µM
- activity at 20 µM [3]: 38%
- IC50 [4]: 18.9 µM
- activity at 20 µM [4]: 35%
- activity at 20 µM [5]: 48%
- activity at 20 µM [6]: 103%
- activity at 20 µM [7]: 101%
- activity at 20 µM [8]: 87%
- activity at 20 µM [9]: 97%
- activity at 20 µM [10]: 104%
- activity at 20 µM [11]: 76%
- activity at 20 µM [12]: 91%
- activity at 20 µM [13]: 113%
- activity at 20 µM [14]: 94%
- activity at 20 µM [15]: 97%
- activity at 20 µM [16]: 103%
- IC50 [17]: > 30 µM
- activity at 20 µM [17]: 48%
- activity at 20 µM [18]: 97%
- activity at 20 µM [19]: 95%
- activity at 20 µM [20]: 104%
- activity at 20 µM [21]: 104%
- activity at 20 µM [22]: 137%
- activity at 20 µM [23]: 92%
- Chemical Stability (37ºC; 24 hrs) ([24]; 24 h, 0.0015 M): stable in neutral, base (pH 13), acid (pH 2)
- activity at 20 µM [25]: 97%
- activity at 20 µM [26]: 90%
- activity at 20 µM [27]: 93%
- activity at 20 µM [28]: 89%
- activity at 20 µM [29]: 87%
- activity at 20 µM [30]: 106%
- activity at 20 µM [31]: 81%
- activity at 20 µM [32]: 100%
- activity at 20 µM [33]: 100%
- activity at 20 µM [34]: 130%
- activity at 20 µM [35]: 99%
- activity at 20 µM [36]: 92%
- activity at 20 µM [37]: 104%
- activity at 20 µM [38]: 114%
